Usually melting point stands for the temperature of the solid-liquid transition.

Read-outs that look alike come from different tables or passages of the source.

One data set deals with HeLa cells. Kind of data set: Secondary assay: cell proliferation WST-1, HeLa. Type of data set: cell-based. The conditions noted are these: Homo sapiens, 48 h, read-out: Cell Proliferation Inhibition WST-1 (IC50 unless otherwise specified) HeLa. Put shortly:
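Absorbance at 450 nm (reference 690 nm); % activity vs untreated after blank subtraction, IC50 fitted with top 100 and bottom 0.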

The test system of data set [1] is K11 HPV E7 transformed human keratinocyte line. The data set can be described thus: Secondary assay: cell proliferation WST-1, K11. The conditions noted are these: Homo sapiens, Keratinocyte, 48 h, read-out: Cell Proliferation Inhibition WST-1 (IC50 unless otherwise specified) K11. Type of data set: cell-based. The method, then: (§1) Compounds with HDAC inhibition activity, as determined using the primary assay, were subsequently evaluated using secondary cell-based assays. The following cell lines were used:
K11—HPV E7 transformed human keratinocyte line provided by Pidder Jansen-Duerr, Institut für Biomedizinische Alternsforschung, Innsbruck, Austria.
(§2) Cells were plated in 96-well plates at 3-10×10^3 cells/well in 100 μL of culture medium. The following day, different concentrations of candidate compounds were added and the cells incubated at 37° C. for 48 h. Subsequently, 10 μL/well of WST-1 reagent was added and the cells reincubated for 1 hour. After the incubation time, absorbance was measured.
(§3) WST-1 is a tetrazolium salt which is cleaved to formazan dye by cellular enzymes. An expansion in the number of viable cells results in an increase in the overall activity of mitochondrial dehydrogenases in the sample. This augmentation in the enzyme activity leads to an increase in the amount of formazan dye formed, which directly correlates to the number of metabolically active cells in the culture. The formazan dye produced is quantified by a scanning multiwell spectrophotometer by measuring the absorbance of the dye solution at 450 nm wavelength (reference wavelength 690 nm).
(§4) Percent activity (% activity) in reducing the number of viable cells was calculated for each test compound as: % activity={(S^C−B)/(S^o−B)}×100 wherein S^C denotes signal measured in the presence of the compound being tested, S^o denotes signal measured in the absence of the compound being tested, and B denotes the background signal measured in blank wells containing medium only.
(§5) IC50 values were calculated using the software package Prism 3.0 (GraphPad software Inc., San Diego, Calif.), setting top value at 100 and bottom value at 0.
A general note: Formazan colour is commonly taken as a measure of viable cells.

The subject of the next data set is HDAC (HeLa cell extract). The data set can be described thus: Primary assay: deacetylase activity, HeLa cell extract as source of HDAC. The conditions noted are these: HeLa cell extract. Type of data set: biochemical, human. Put shortly: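 Crude HeLa extract (freeze-thaw in 60 mM TrisCl pH 8.0, 450 mM NaCl, 30% glycerol) was incubated 1 h at 37° C with a [³H]acetyl-labelled histone H4 N-terminal peptide in 20 mM Tris pH 7.4, 10% glycerol.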

The next data set concerns JURKAT human T-cell line. Kind of data set: Secondary assay: cell proliferation WST-1, Jurkat. In kind it is cell-based. Particulars: Homo sapiens, 48 h, read-out: Cell Proliferation Inhibition WST-1 (IC50 unless otherwise specified) Jurkat. As to the method:
as §1
JURKAT—Human T-cell line (ATCC no. TIB-152).
as §2, §3, §4, §5

[2] abbreviates: read-out: HDAC Inhibition (IC50 unless otherwise specified) HeLa.

Consider `O=C(CCCCCCC(=O)NC/C=C/c1ccccc1)NO` [PX117416, Octanedioic acid hydroxyamide (3-phenyl-allyl)-amide], for which the melting point is 133 to 133.5 °C. In addition, the IC50 in the data set with HeLa cells was 7.4 µM. Besides, in data set [1], the IC50 stood at 8.5 µM. Further, the “HDAC Inhibition HeLa, percent” value in the data set with HDAC (HeLa cell extract) (@ 500 nM) was determined as 75% @ 500 nM. Also, in the data set on JURKAT human T-cell line, the IC50 was found to be 3.6 µM.
For `O=C(CCCCCCC(=O)NCCCc1ccccc1)NO` [PX117420, Octanedioic acid hydroxyamide (3-phenyl-propyl)-amide] the same measures were 97 to 98 °C, 15 µM, 23.5 µM, 73% @ 500 nM and 5.3 µM.
The molecule `O=C(/C=C/c1cccc2ccccc12)NCCCCCC(=O)NO` [PX117441, N-(5-Hydroxycarbamoyl-pentyl)-3-naphthalen-1-yl-acrylamide] displayed a melting point of 135 to 137 °C. For the same molecule, the IC50 in the data set on HeLa cells was found to be 17 µM. The IC50 in data set [1] was found to be 4.9 µM. The IC50 in the data set on HDAC (HeLa cell extract) (setting [2]) came out at 0.048 µM. In addition, in the data set with HDAC (HeLa cell extract) (comparative tables, read-out: HeLa IC50), the IC50 stood at 0.048 µM. The IC50 in the data set on JURKAT human T-cell line turned out to be 4.3 µM.
Molecule `CC(/C=C/C(=O)Nc1cccc(/C=C/C(=O)NO)c1)=C\c1ccccc1` [PX117707, N-{3-[(E)-3-(Hydroxyamino)-3-oxo-1-propenyl]phenyl}-4-methyl-5-phenyl-(2E,4E)-pentadienamide] registered a melting point of 145 to 148 °C. For the same molecule, the IC50 with HeLa cells was determined as 43 µM. In addition, the IC50 in data set [1] is 7.7 µM. The IC50 in the data set with HDAC (HeLa cell extract) (setting [2]) turned out to be 0.235 µM. The IC50 in the data set on JURKAT human T-cell line worked out at 1.5 µM.
For `O=C(/C=C/c1cccc(NC(=O)/C=C/c2ccc3c(c2)OCO3)c1)NO` [PX117711, (E)-3-(1,3-Benzodioxol-5-yl)-N-{3-[(E)-3-(hydroxyamino)-3-oxo-1-propenyl]phenyl}-2-propenamide] the same measures were 128 °C, 9.8 µM, 7.9 µM, 0.44 µM and 0.92 µM.
The matching figures for `O=C(/C=C/c1ccc(C(F)(F)F)cc1)NCCCCCC(=O)NO` [PX117717, N-(5-Hydroxycarbamoyl-pentyl)-3-(4-trifluoromethyl-phenyl)-acrylamide]: 132 to 134 °C, 5.9 µM, 2.34 µM, 0.022 µM and 0.41 µM.
For `O=C(/C=C/c1cccc(OC(F)(F)F)c1)NCCCCCC(=O)NO` [PX117718, N-(5-Hydroxycarbamoyl-pentyl)-3-(3-trifluoromethoxy-phenyl)-acrylamide] the same measures were 109 to 111 °C, 39 µM, 3.7 µM, 0.067 µM and 4.4 µM.
`O=C(CCCCCCC(=O)Nc1ccc(-c2ccccc2)cc1)NO` [PX117720, Octanedioic acid biphenyl-4-ylamide hydroxamide] returned a melting point of 227 to 229 °C. For the same molecule, in the data set with HeLa cells, the IC50 was determined as 1.8 µM. The IC50 in data set [1] stood at 2.5 µM. For the same molecule, the IC50 in the data set on HDAC (HeLa cell extract) (setting [2]) was 0.04 µM. In the data set on JURKAT human T-cell line, the IC50 worked out at 0.26 µM.
For the molecule `Cc1ccc(C(CC(=O)NCCCCCC(=O)NO)NC(=O)OCc2ccccc2)cc1` (stereo not shown) [PX117729, [2-(5-Hydroxycarbamoyl-pentylcarbamoyl)-1-p-tolyl-ethyl]-carbamic acid benzyl ester], the melting point is 146 to 148 °C. Also, in the data set with HeLa cells, the IC50 came out at 33 µM. In data set [1], the IC50 is 23 µM. In addition, the “HDAC Inhibition HeLa, percent” value in the data set with HDAC (HeLa cell extract) (@ 100 nM) was determined as 13% @ 100 nM. For the same molecule, the IC50 in the data set with JURKAT human T-cell line turned out to be 2.8 µM.
`CC(=C\c1ccccc1)/C=C(\C)C(=O)NCCCCCC(=O)NO` [PX117738, (2E)(4E)-2,4-Dimethyl-5-phenylpenta-2,4-dienoic acid (5-hydroxycarbamoyl-pentyl)amide] returned a melting point of 120 to 122 °C. Besides, the IC50 in the data set with HeLa cells was determined as 24 µM. Besides, the IC50 in data set [1] worked out at 3.2 µM. Besides, in the data set with HDAC (HeLa cell extract) (setting [2]), the IC50 turned out to be 0.131 µM. In the data set with JURKAT human T-cell line, the IC50 amounted to 1.7 µM.
Regarding `O=C(CCCCCNC(=O)[C@H](Cc1c[nH]c2ccccc12)NC(=O)CCCc1c[nH]c2ccccc12)NO` [PX117767, N-Hydroxy-6-[((2S)-3-(1H-indol-3-yl)-2-{[4-(1H-indol-3-yl)butanoyl]amino}propanoyl)-amino]hexanamide], the melting point lay in the range of 94 to 96 °C. Further, the IC50 in the data set with HeLa cells was found to be 15 µM. In addition, in data set [1], the IC50 was 6.2 µM. Besides, the IC50 in the data set with HDAC (HeLa cell extract) (setting [2]) came to 0.09 µM. In the data set on JURKAT human T-cell line, the IC50 was 3 µM.
For `O=C(CCCCCNC(=O)CC/C=C/c1ccccc1)NO` [PX117797, (E)-N-[6-(Hydroxyamino)-6-oxohexyl]-5-phenyl-4-pentenamide] the same measures were 131 to 133 °C, 21 µM, 21 µM, 0.688 µM and 5.6 µM.
